Test results reported in US11499978B2, “Method for measuring quality of therapeutic cell through real-time glutathione measurement” (CELL2IN, INC., priority 2017, dated 2022).

Tests used:
hUC-MSCs [1] = assay: Oxidative stress resistance capacity (ORC) analysis in hUC-MSCs with RSL3; assay type: cell-based, human; conditions: hUC-MSCs; liproxstatin-1 0, 2.5, 5 or 10 μM; RSL3 0, 0.5 or 1 μM; the higher the concentration
Method: GRC refers to a value obtained by real-time monitoring of FR after living cells are treated with an oxidizing agent, as calculated by dividing a value obtained by subtracting AUC of a group treated with 0.1-100 mM N-ethylmaleimide (NEM) from FR AUC of an oxidizing agent (diamide, H2O2, etc.)-treated group by a value obtained by subtracting the AUC of NEM-treated group from AUC of the untreated control, and multiplying the resulting value by 100. The FR of the NEM-treated group is a value for increasing the sensitivity of a GRC value by treating it as the blank value of the FR of the cells of interest. […] To remove the MitoFreSH-Tracer from the medium before measurement, the medium was exchanged with fresh 10 mM HEPES-containing HBSS(Hanks' Balanced Salt Solution), and a fluorescence image was obtained using a confocal imaging system, Operetta. By comparing GSH levels quantified from control cells not treated with RSL3 or control cells before treated with RSL3, the distribution of GSH expression-changed cells was calculated. Based on the point where the distribution histogram is divided into two peaks, the cells were divided into GSH^High cells (right peak) and GSH^Low cells (left peak), and then a ratio of corresponding cells was expressed as a percentage (%). […]

T cells = assay: Anti-inflammatory effect of treated hUC-MSCs on T cells; assay type: cell-based; conditions: for anti-inflammatory effect of the hUC-MSCs: ferrostatin-1 1 μM 24 h, GGC 0.2 mM 2 h, FIGS. 27, 28A to 28C; for T cell differentiation capacity / T cell proliferation ability / Treg cell differentiation: hUC-MSCs treated with 1 μM ferrostatin-1 24 h, 0.2 mM GGC 2 h, 2 mM GSH-EE 2 h
Method: The inventors observed an effect of the material on stem cells by treating each stem cells with a material for enhancing a glutathione evaluation parameter. When hUC-MSCs were subcultured in a L-AA2G-containing medium, CFU-F, migration capacity, and an anti-inflammatory effect were observed. A CFU-F assay (n=3) was performed by treating hUC-MSCs with 125 or 250 μg/mL of AA2G for three days. As shown in FIGS. 16A and 16B, it was confirmed that, when AA2G was treated, CFU-F increased. In addition, as hUC-MSCs were treated with 125 or 250 μg/mL of AA2G for three days, PDGF-AA-induced migration capacity (n=3) was analyzed. As shown in FIGS. 17A and 17B, it was confirmed that the migration capacity was increased by AA2G treatment. In addition, the reduction in T cell proliferation, the reduction in T cell differentiation, and the promotion of Treg cell differentiation were observed by treating hUC-MSCs with 125 or 250 μg/mL of AA2G for three days.
In addition, hUC-MSCs were cultured with ferrostatin-1 (0.2, 1, 2 and 4 μM) and liproxstatin-1 (0.1, 0.5, 1 and 2 μM), which control a glutathione level in cells by inhibiting lipid oxidation. […] Meanwhile, the hUC-MSCs were treated with 1 μM ferrostatin-1 for 24 hours, 0.2 mM GGC for 2 hours, and 2 mM GSH-EE for 2 hours. As a result, the reduction in T cell proliferation ability and the reduction in T cell differentiation capacity were observed, and promotion of Treg cell differentiation was observed.

hUC-MSCs [2] = assay: CFU-F assay of hUC-MSCs; assay type: cell-based, human; conditions: n=3
Method: (§1) The inventors observed an effect of the material on stem cells by treating each stem cells with a material for enhancing a glutathione evaluation parameter. When hUC-MSCs were subcultured in a L-AA2G-containing medium, CFU-F, migration capacity, and an anti-inflammatory effect were observed. A CFU-F assay (n=3) was performed by treating hUC-MSCs with 125 or 250 μg/mL of AA2G for three days. As shown in FIGS. 16A and 16B, it was confirmed that, when AA2G was treated, CFU-F increased. In addition, as hUC-MSCs were treated with 125 or 250 μg/mL of AA2G for three days, PDGF-AA-induced migration capacity (n=3) was analyzed. As shown in FIGS. 17A and 17B, it was confirmed that the migration capacity was increased by AA2G treatment. In addition, the reduction in T cell proliferation, the reduction in T cell differentiation, and the promotion of Treg cell differentiation were observed by treating hUC-MSCs with 125 or 250 μg/mL of AA2G for three days. […] Meanwhile, hUC-MSCs were cultured with a glutathione precursor such as γ-glutamyl cysteine (GGC, 0.1, 0.25, and 0.5 mM). A CFU-F assay (n=3) was performed by treating hUC-MSCs with each concentration of GGC for 2 hours. […] In addition, SDF1α and PDGF-AA-induced migration capacities (n=3) were analyzed for hUC-MSCs without treatment with GGC, and SDF1α and PDGF-AA-induced migration abilities (n=3) were analyzed by treating hUC-MSCs with the increasing concentrations of GGC. STI571 was used as a PDGFR kinase inhibitor. As shown in FIGS. 20A to 20C, it was confirmed that, according to an increase in GGC treatment concentration, SDF1α- and PDGF-AA-induced migration capacities were enhanced. A CFU-F assay (n=3) was performed by treating hUC-MSCs with 0.2, 1, 2, and 4 μM ferrostatin-1 and 0.1, 0.5, 1, and 2 μM liproxstatin-1 for 24 hours.

hES-MSCs = assay: CFU-F assay of FreSH-Tracer-sorted hES-MSCs; assay type: cell-based, human
Method: Main factors for determining the therapeutic efficacy of hBM-MSCs, namely a colony forming unit-fibroblast (CFU-F) and a graft survival rate, were evaluated in cell culture models.
In order to test whether direct control of a GSH level in stem cells leads to change in cell functions, hES-MSCs sorted by FreSH-Tracer were treated with buthionine sulfoximine (BSO; glutathione synthesis inhibitor) and glutathione ethyl ester (GSH-EE). When GSH was decreased in cells by treating GSH^High cells with BSO (80 μM, 24 h), it was confirmed that CFU-F increased, and on the other hand, when GSH was increased by treating GSH^Low cells with GSH-EE (1 mM, 2 h), it was confirmed that CFU-F decreased (FIG. 13A). In addition, it was confirmed that, when hES-MSCs which were not sorted by FreSH-Tracer were treated with BSO or GSH-EE, PDGF-AA-induced cell migration capacity was decreased or increased, respectively (FIG. 13B).

hUC-MSCs [3] = assay: SDF1α- and PDGF-AA-induced migration capacity of hUC-MSCs; assay type: cell-based, human; conditions: increasing GGC treatment concentration (0.1, 0.25 mM), n=3
Method: as §1, with “mM).” for “mM). A CFU-F assay (n=3) was performed by treating hUC-MSCs with each concentration of GGC for 2 hours.”, “STI571 was used as a PDGFR kinase inhibitor. As shown in FIGS. 20A to 20C, it was confirmed that, according to an increase in GGC treatment concentration, SDF1α- and PDGF-AA-induced migration capacities were enhanced. A CFU-F assay (n=3) was performed by treating hUC-MSCs with 0.2, 1, 2, and 4 μM ferrostatin-1 and 0.1, 0.5, 1, and 2 μM liproxstatin-1 for 24 hours.” left out

SMILES	ORC: ratio of the GSH^High cells (hUC-MSCs [1])	anti-inflammatory effect of the hUC-MSCs (T cells)	CFU-F (hUC-MSCs [2]; ferrostatin-1 0.2, 1, 2 and 4 μM, liproxstatin-1 0.1, 0.5, 1 and 2 μM, 24 hours)	CFU-F (hES-MSCs; GSH^High hES-MSCs treated with BSO 80 μM, 24 h)	T cell differentiation capacity (T cells)	T cell proliferation ability (T cells)	Treg cell differentiation (T cells)	SDF1α- and PDGF-AA-induced migration capacities (hUC-MSCs [3])	CFU-F (hUC-MSCs [2]; GGC 0.1, 0.25 and 0.5 mM for 2 hours)	CFU-F (hES-MSCs; GSH^Low hES-MSCs treated with GSH-EE 1 mM, 2 h)
Clc1cccc(CN=C2Nc3ccccc3NC23CCNCC3)c1 [liproxstatin-1]	increased	did not alter	improved							
CCCCS(=N)(=O)CCC(N)C(=O)O (centres unmarked) [BSO, buthionine sulfoximine]				increased						
N[C@@H](CCC(=O)N[C@@H](CS)C(=O)O)C(=O)O [GGC, γ-glutamyl cysteine]		no change			reduction	reduction	promotion	enhanced	increased	
CCOC(=O)CNC(=O)[C@H](CS)NC(=O)CC[C@H](N)C(=O)O [GSH-EE, glutathione ethyl ester]					reduction	reduction	promotion			decreased
